# Data: US7915270B2, “Oxazole ketones as modulators of fatty acid amide hydrolase” (The Scripps Research Institute, priority 2006, dated 2011)
# How the values were obtained:
# FAAH [1] = biological target: T1, FAAH (Homo sapiens, UniProt O00519); assay: Assay Method 1B: FAAH assay, 3H-anandamide hydrolysis in cell homogenate (T84 or SK-N-MC cells transfected with human FAAH); type: biochemical; parameters: expressed in transfected cells; settings: 3H-AEA 80 nM, rt 1 h, pH 9
# T1 sequence (O00519 1-579): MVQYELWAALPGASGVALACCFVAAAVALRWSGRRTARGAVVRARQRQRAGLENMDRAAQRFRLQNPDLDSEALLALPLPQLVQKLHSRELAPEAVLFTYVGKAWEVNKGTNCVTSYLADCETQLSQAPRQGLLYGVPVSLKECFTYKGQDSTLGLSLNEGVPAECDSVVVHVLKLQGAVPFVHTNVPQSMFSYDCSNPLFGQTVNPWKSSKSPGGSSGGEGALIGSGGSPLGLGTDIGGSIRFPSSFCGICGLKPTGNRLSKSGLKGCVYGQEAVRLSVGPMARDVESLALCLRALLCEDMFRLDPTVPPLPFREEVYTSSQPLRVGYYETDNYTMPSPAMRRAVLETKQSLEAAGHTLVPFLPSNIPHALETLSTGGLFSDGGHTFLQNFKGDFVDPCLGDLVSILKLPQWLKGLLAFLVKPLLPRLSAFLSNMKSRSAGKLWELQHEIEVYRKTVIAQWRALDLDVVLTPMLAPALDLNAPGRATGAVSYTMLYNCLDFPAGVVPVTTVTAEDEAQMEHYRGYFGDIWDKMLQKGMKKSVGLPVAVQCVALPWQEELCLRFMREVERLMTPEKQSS
# Protocol: Transfection of Cells with Human FAAH A 10-cm tissue culture dish with a confluent monolayer of SK—N-MC cells was split 2 days (d) prior to transfection. Using sterile technique, the media was removed and the cells were detached from the dish by the addition of trypsin. One fifth of the cells were then placed onto a new 10-cm dish. Cells were grown in a 37° C. incubator with 5% CO2 in Minimal Essential Media Eagle with 10% Fetal Bovine Serum. After 2 d, cells were approximately 80% confluent. These cells were removed from the dish with trypsin and pelleted in a clinical centrifuge. The pellet was re-suspended in 400 μL complete media and transferred to an electroporation cuvette with a 0.4 cm gap between the electrodes. Supercoiled human FAAH cDNA (1 μg) was added to the cells and mixed. The voltage for the electroporation was set at 0.25 kV, and the capacitance was set at 960 μF. After electroporation, the cells were diluted into complete media (10 mL) and plated onto four 10-cm dishes. Because of the variability in the efficiency of electroporation, four different concentrations of cells were plated. The ratios used were 1:20, 1:10, and 1:5, with the remainder of the cells being added to the fourth dish. The cells were allowed to recover for 24 h before adding the selection media (complete media with 600 μg/mL G418). After 10 d, dishes were analyzed for surviving colonies of cells. Dishes with well-isolated colonies were used. Cells from individual colonies were isolated and tested. […] The reaction mixture was incubated at rt for 1 h. During the incubation, 96-well Multiscreen filter plates (catalog number MAFCNOB50; Millipore, Bedford, Mass., USA) were loaded with 25 μL of activated charcoal (Multiscreen column loader, catalog number MACL09625, Millipore) and washed once with 100 μL of MeOH. Also during the incubation, 96-well DYNEX MicroLite plates (catalog number NL510410) were loaded with 100 μL of MicroScint40 (catalog number 6013641, Packard Bioscience, Meriden, Conn., USA). After the 1 h incubation, 60 μL of the reaction mixture were transferred to the charcoal plates, which were then assembled on top of the DYNEX plates using Centrifuge Alignment Frames (catalog number MACF09604, Millipore). The unbound labeled ethanolamine was centrifuged through to the bottom plate (5 min at 2000 rpm), which was preloaded with the scintillant, as described above. The plates were sealed and left at rt for 1 h before counting on a Hewlett Packard TopCount.
# Rat FAAH = biological target: T2, Rat FAAH (Rattus norvegicus, UniProt P97612); assay: Assay Method 2: FAAH assay, 3H-anandamide hydrolysis in cell homogenate (SK-N-MC cells transfected with rat FAAH); type: biochemical; settings: 3H-AEA 80 nM, rt 1 h, pH 9
# T2 construct: expressed in transfected cells
# T2 sequence (P97612 1-579): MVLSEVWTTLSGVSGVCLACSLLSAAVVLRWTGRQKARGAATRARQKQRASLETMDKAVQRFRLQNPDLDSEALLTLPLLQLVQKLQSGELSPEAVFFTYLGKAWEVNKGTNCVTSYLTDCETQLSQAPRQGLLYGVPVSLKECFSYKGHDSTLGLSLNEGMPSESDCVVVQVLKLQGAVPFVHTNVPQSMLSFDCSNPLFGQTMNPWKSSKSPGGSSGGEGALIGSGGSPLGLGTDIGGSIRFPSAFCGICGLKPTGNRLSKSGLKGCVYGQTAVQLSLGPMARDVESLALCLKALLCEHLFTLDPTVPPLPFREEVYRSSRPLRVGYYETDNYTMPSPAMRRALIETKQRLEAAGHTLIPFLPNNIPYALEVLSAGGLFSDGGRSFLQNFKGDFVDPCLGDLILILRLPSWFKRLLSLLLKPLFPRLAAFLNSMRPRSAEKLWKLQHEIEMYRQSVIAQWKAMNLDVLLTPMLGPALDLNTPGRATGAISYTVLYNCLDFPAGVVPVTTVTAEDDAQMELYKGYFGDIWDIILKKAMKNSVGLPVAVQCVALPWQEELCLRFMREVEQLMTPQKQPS
# Protocol: A. Transfection of Cells with Rat FAAH
# A 10-cm tissue culture dish with a confluent monolayer of SK—N-MC cells was split 2 days (d) prior to transfection. Using sterile technique, the media was removed and the cells were detached from the dish by the addition of trypsin. One fifth of the cells were then placed onto a new 10-cm dish. Cells were grown in a 37° C. incubator with 5% CO2 in Minimal Essential Media Eagle with 10% Fetal Bovine Serum. After 2 d, cells were approximately 80% confluent. These cells were removed from the dish with trypsin and pelleted in a clinical centrifuge. The pellet was re-suspended in 400 μL complete media and transferred to an electroporation cuvette with a 0.4 cm gap between the electrodes. Supercoiled rat FAAH cDNA (1 μg) was added to the cells and mixed. The voltage for the electroporation was set at 0.25 kV, and the capacitance was set at 960 μF. After electroporation, the cells were diluted into complete media (10 mL) and plated onto four 10-cm dishes. Because of the variability in the efficiency of electroporation, four different concentrations of cells were plated. The ratios used were 1:20, 1:10, and 1:5, with the remainder of the cells being added to the fourth dish. The cells were allowed to recover for 24 h before adding the selection media (complete media with 600 μg/mL G418). After 10 d, dishes were analyzed for surviving colonies of cells. Dishes with well-isolated colonies were used. Cells from individual colonies were isolated and tested.
# The assay mixture consisted of 50 μL of the cell homogenate, 10 μL of the test compound, and 40 μL of anandamide [1-^3H-ethanolamine] (^3H-AEA, Perkin-Elmer, 10.3 Ci/mmol), which was added last, for a final tracer concentration of 80 nM. The reaction mixture was incubated at rt for 1 h. During the incubation, 96-well Multiscreen filter plates (catalog number MAFCNOB50; Millipore, Bedford, Mass., USA) were loaded with 25 μL of activated charcoal (Multiscreen column loader, catalog number MACL09625, Millipore) and washed once with 100 μL of MeOH. […] After the 1 h incubation, 60 μL of the reaction mixture were transferred to the charcoal plates, which were then assembled on top of the DYNEX plates using Centrifuge Alignment Frames (catalog number MACF09604, Millipore). The unbound labeled ethanolamine was centrifuged through to the bottom plate (5 min at 2000 rpm), which was preloaded with the scintillant, as described above. The plates were sealed and left at rt for 1 h before counting on a Hewlett Packard TopCount.
# FAAH [2] = biological target: T3, FAAH (Rattus norvegicus, UniProt P97612); assay: Assay Method 1A: FAAH enzyme assay, 14C-oleamide hydrolysis, solubilized liver plasma membrane extract;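 note: ki obtained by Dixon analysis, taking the x-intercept of inhibitor concentration versus reciprocal rate plots at fixed substrate level and correcting for substrate concentration relative to Km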
# T3 sequence (P97612 1-579): T2 sequence (P97612 1-579)
# Protocol: Linear least squares fits were used for all reaction progress curves and R^2 values were consistently >0.97. […] Ki values were determined by the Dixon Method (x-intercepts of weighted linear fits of [I] versus 1/rate plots at constant substrate concentration, which were converted to Ki values using the formula Ki=−xint/[1+[S]/Km]).
IC50 (FAAH [1]) [nM],IC50 (Rat FAAH) [nM],Ki (FAAH [2]) [nM],Compound
1,9,11,"O=C(CCCCCCc1ccccc1)c1ncc(-c2ccc(C(=O)O)s2)o1 [Example 58, 5-(2-(7-Phenylheptanoyl)oxazol-5-yl)thiophene-2-carboxylic acid]"
100,4500,40,"COc1cccc(-c2cnc(C(=O)CCCCCCc3ccccc3)o2)c1 [Example 14, 1-(5-(3-Methoxyphenyl)oxazol-2-yl)-7-phenylheptan-1-one]"
0.1,1.5,19,"O=C(CCCCCCc1ccccc1)c1ncc(-c2cc(=O)[nH]c(=O)[nH]2)o1 [Example 52, 6-(2-(7-Phenylheptanoyl)oxazol-5-yl)pyrimidine-2,4(1H,3H)-dione]"
11,9,4,"COC(=O)c1ccc(-c2cnc(C(=O)CCCCCCc3ccccc3)o2)nc1 [Example 34, Methyl 6-(2-(7-phenylheptanoyl)oxazol-5-yl)nicotinate]"
6,75,7,"COC(=O)c1ccc(-c2cnc(C(=O)CCCCCCc3ccccc3)o2)s1 [Example 57, Methyl 5-(2-(7-phenylheptanoyl)oxazol-5-yl)thiophene-2-carboxylate]"
260,2200,60,"COC(=O)c1ccccc1-c1cnc(C(=O)CCCCCCc2ccccc2)o1 [Example 22, Methyl 2-(2-(7-phenylheptanoyl)oxazol-5-yl)benzoate]"
2,8,3,"NS(=O)(=O)c1ccc(-c2cnc(C(=O)CCCCCCc3ccccc3)o2)s1 [Example 59, 5-(2-(7-Phenylheptanoyl)oxazol-5-yl)thiophene-2-sulfonamide]"
17,290,19,"Nc1cccc(-c2cnc(C(=O)CCCCCCc3ccccc3)o2)c1 [Example 28, 1-(5-(3-Aminophenyl)oxazol-2-yl)-7-phenylheptan-1-one]"
340,500,125,"O=C(CCCCCCc1ccccc1)c1ncc(-c2ccccc2[N+](=O)[O-])o1 [Example 1, 1-(5-(2-Nitrophenyl)oxazol-2-yl)-7-phenylheptan-1-one]"
4,27,2,"NS(=O)(=O)c1cccc(-c2cnc(C(=O)CCCCCCc3ccccc3)o2)c1 [Example 20, 3-(2-(7-Phenylheptanoyl)oxazol-5-yl)benzenesulfonamide]"
440,3000,6000,"O=C(CCCCCCc1ccccc1)c1ncc(-c2ccccc2C(=O)O)o1 [Example 60, 2-(2-(7-Phenylheptanoyl)oxazol-5-yl)benzoic acid]"
40,500,–,"O=C(CCCCCCc1ccccc1)c1ncc(-c2cccc(C(=O)C(F)(F)F)c2)o1 [Example 5, 7-Phenyl-1-(5-(3-(2,2,2-trifluoroacetyl)phenyl)oxazol-2-yl)heptan-1-one]"
55,570,–,"O=C(CCCCCCc1ccccc1)c1ncc(-c2cccc(O)c2)o1 [Example 31, 1-(5-(3-Hydroxyphenyl)oxazol-2-yl)-7-phenylheptan-1-one]"
770,4000,–,"COc1ccc(-c2cnc(C(=O)CCCCCCc3ccccc3)o2)cc1 [Example 15, 1-(5-(4-Methoxyphenyl)oxazol-2-yl)-7-phenylheptan-1-one]"
280,980,–,"Nc1ccc(-c2cnc(C(=O)CCCCCCc3ccccc3)o2)cc1 [Example 29, 1-(5-(4-Aminophenyl)oxazol-2-yl)-7-phenylheptan-1-one]"
12,34,–,"NC(=O)c1cccc(-c2cnc(C(=O)CCCCCCc3ccccc3)o2)c1 [Example 8, 3-(2-(7-Phenylheptanoyl)oxazol-5-yl)benzamide]"
260,1700,–,"O=C(CCCCCCc1ccccc1)c1ncc(-c2ccc(C(=O)C(F)(F)F)cc2)o1 [Example 6, 7-Phenyl-1-(5-(4-(2,2,2-trifluoroacetyl)phenyl)oxazol-2-yl)heptan-1-one]"
